Test results: patent US6916906B1, “Polypeptides implicated in the expression of resistance to glycopeptides, in particular in gram-positive bacteria, nucleotide sequence coding for these polypeptides and use for diagnosis” (priority 1990, dated 2005)

Columns and labels:
E. faecalis JH2-2 = test: MIC after inactivation of vanS by insertion in plasmid pAT80; format: cell-based, Enterococcus faecalis; details: inactivation of vanS in pAT80, compared with pAT80
From the text: The restriction fragments of pIP816 (Tra^−, Mob^+, Vm^r) were cloned in derivatives of the vector pAT29 which constitutes a shuttle vector between the Gram-positive and Gram-negative bacteria (oriR pAMβ1, oriR pUC, oriT RK2, spc, lacZ) (Trieu-Cuot et al., 1990, Nucleic Acids Res. 18:4296). This vector was constructed by the inventors and used to transform the strain E. coli JM103 ((lac-proAB), supE, thi, strA, sbcB15, endA, hspR4, F traD36, proAB, LacI^q, lacZ M15) (Messing et al., 1983, Methods Ezymol. 101:20-78). The plasmid DNA was prepared by an alkaline lysis protocol on a small scale (Sambrook et al., 1982, Molecular cloning, a laboratory manual. Cold Spring Harbor Laboratory, Cold Spring Harbor N.Y.) and introduced by electroporation (Cruz-Rodz A. L. et al., 1990, Mol. Gen. Genet. 224: 152-154) in E. faecalis JH2-2 (Fus^R, Rif^R) (Jacob A. E. et al., 1974, J. Bacteriol. 117: 360-372), by using a Gene Pulser apparatus (Bio-Rad Laboratories, Richmond, Calif.). The restriction profiles of the purified plasmids from E. faecalis and E. coli were compared in order to detect possible rearrangements of DNA.
The cultures were grown in brain-heart broth (BHI—Brain Heart Infusion Broth) or on agar at 37° C. […]

[1] = test system: strain with a high level of resistance, in particular Gram-positive cocci; test: MIC towards strains with a high level of resistance; format: cell-based
BM4175 = test: Minimal inhibitory concentration of vancomycin for BM4175 (vanC inactivated by insertion); format: cell-based; details: Enterococcus gallinarum; BM4175, pAT217 integrated into vanC
Description: (§1) The cultures were grown in brain-heart broth (BHI—Brain Heart Infusion Broth) or on agar at 37° C. The method of Steers et al (Antibiot. Chemother. Basel. 9: 307-311) was used to determine the minimal inhibitory concentrations (MICs) of the antibiotics on a Mueller-Hinton gelose agar medium.
(§2) In order to evaluate the contribution of vanC to resistance to vancomycin in E. gallinarum BM4174, the vanC gene was inactivated by insertion. […] The resulting pAT217 plasmid was introduced into BM4174 by electroporation (Cruz-Rodz et al., 1990, Mol. Gen. Genet. 224:152-154) and the clones supposed to result from a homologous recombination leading to the integration of pAT217 into vanC were selected on erythromycin. The clone BM4175 was compared with BM4174 by Southern hybridization using the probe C and aphA-3 specific for pAT114. The two probes hybridized with the EcoRI fragment of 8.6 kb from BM4175.

E. gallinarum BM4174 = test: Minimal inhibitory concentration of vancomycin for BM4174; format: cell-based; details: Enterococcus gallinarum, read-out: minimal inhibitory concentration
Description: as §1, §2

[2] = test system: strains with low-level resistance; test: MIC towards strains with low-level resistance; format: cell-based

Compound | change of minimal inhibitory concentration (MIC) (E. faecalis JH2-2) | MIC ([1]; read-out: minimal inhibitory concentrations (MIC)) [µg/mL] | MIC (BM4175) [µg/mL] | MIC (E. gallinarum BM4174) [µg/mL] | minimal inhibitory concentrations (MIC) ([1]; strains with a high level of resistance (definition)) [µg/mL] | sensitivity of the strains [2]
O=C(N[C@H](CO)[C@H](O)c1ccc([N+](=O)[O-])cc1)C(Cl)Cl [chloramphenicol] | two-fold reduction | – | – | – | – | –
CN[C@H](CC(C)C)C(=O)N[C@H]1C(=O)N[C@@H](CC(N)=O)C(=O)N[C@H]2C(=O)N[C@H]3C(=O)N[C@H](C(=O)N[C@H](C(=O)O)c4cc(O)cc(O)c4-c4cc3ccc4O)[C@H](O)c3ccc(c(Cl)c3)Oc3cc2cc(c3O[C@@H]2O[C@H](CO)[C@@H](O)[C@H](O)[C@H]2O[C@H]2C[C@](C)(N)[C@H](O)[C@H](C)O2)Oc2ccc(cc2Cl)[C@H]1O [vancomycin] | remains unchanged | > 32 | 2 | 16 | – | –
teicoplanin | – | – | – | – | > 8 | apparently sensitive
